{"source": "patent US8329685B1", "about": "“Enhancement of the action of anti-infective agents and of central and peripheral nervous system agents and transportation of nucleic acid substances” (priority 2001, dated 2012)", "key": {"[1]": {"test_system": "Plasmodium Falciparum drug resistant reference strain W2", "test": "Growth of malaria parasites in human erythrocyte cultures (% parasitaemia, Giemsa smears)", "type": "cell-based", "text": "The specific parasite investigated was the reference drug resistant strain W2 of the species Plasmodium Falciparum. Plasmodium Falciparum is the most commonly occurring as well as the most virulent malaria parasite currently known in man.\nThe system used in this investigation aims to mimic the live situation as closely as possible. For that reason, the parasites were infected into fresh primary erythrocytes isolated from O+ or A+ blood donors.\nFurthermore, human serum prepared from the same donors was used as an adjuvant instead of foetal calf serum. Parasite growth was maintained by the addition of freshly prepared erythrocytes from the same donors.\nThe growth of the parasites was determined by visualization of the parasite DNA on thin smears of the infected cultures. Since mature erythrocytes contain no nucleus, and therefore no DNA, the only DNA present was of parasitic origin. Only intracellular parasites were included in determining the percentage parasitaemia, as extracellular parasites are no longer viable.\nA. Culturing of Malaria Parasites: • 1. Preparation of fresh human erythrocytes • 2. Preparation of human serum from the same donor. • 3. Quality control of human serum. • 4. Infection of erythrocyte cultures with parasites. Initial infection load was 0.5% parasitaemia. • 5. Maintenance of parasite blood cultures • 6. The parasite percentage in the blood cultures was determined after 36 or 48 hours, depending on the level of infection of the freshly added erythrocytes.\nA stock solution of 10 mM chloroquine solution in a 1:250 dilution of nanolipid formulation was made by vortexing and sonication. All concurrent dilutions were from this stock.\nD Drug Delivery by MZL Nanolipid Formulations: • 1 Penetrance of nanolipid formulations in red blood cells was determined by microscopic visualization, as were the penetrance of chloroquine-carrying nanolipid formulations. • 2. […] Typically 48-well plates or 96-well plates were used. 200 ul or 100 ul total culture volumes were used respectively, of which 90% of the volume was infected erythrocyte culture. 10% volume was used for the treatment, be it chloroquine in Nanolipid formulation, chloroquine in water, or for the controls 1:250 pure Nanolipid formulation, pure culturing media or water only. • 4. All series were in duplicate.\nParasitic DNA was visualised by Giemsa staining of thin smears. Ethidium bromide or acridine orange may be used for fluorescent staining.\nThe % infection after applicable incubation periods was determined as follows: […]"}, "[2]": {"test_system": "Plasmodium Falciparum drug resistant reference strain W2", "settings": "read-out: 50% Inhibition concentration value (IC50); free Chloroquine; known value of strain W2; cited from earlier work"}, "[3]": {"test_system": "M. tuberculosis H37Rv", "test": "BACTEC growth index with Ethambutol with and without MZL", "type": "cell-based, Mycobacterium tuberculosis", "settings": "for inhibition at 0.0325 µg/mL: 0.0325 μg/ml Ethambutol; for inhibition at 0.0625 µg/mL: 0.0625 μg/ml Ethambutol; for inhibition at 0.125 µg/mL: 0.125 μg/ml Ethambutol; for inhibition at 0.25 µg/mL: 0.25 μg/ml Ethambutol; for inhibition at 0.5 µg/mL: 0.5 μg/ml Ethambutol; for inhibition at 1 µg/mL: 1.0 μg/ml Ethambutol"}, "[4]": {"test_system": "melanoma cells (UCT MeI 1 cell line) incubated with fungi", "settings": "0.2%"}, "[5]": {"settings": "human, in vivo"}, "[6]": {"settings": "20° C. and 2 atm pressure; cited from earlier work"}, "[7]": {"test_system": "HIV subtype D viruses in CD4 helper T-cells (CEM-SS cell line)", "test": "HIV viral load (p24 core antigen ELISA) in infected CD4 helper T-cells", "type": "cell-based, HIV-1", "method": "The following protocols were followed in this investigation: • a) Several cultures of CD4 helper T-cells (CEM-SS cell line; NIH AIDS Research and Reference Reagent Program) were infected with HIV subtype D viruses at applicable cell seeding densities and viral loads. Cells were maintained in tissue culture under standard culturing conditions. • b) The viral load in cultured cells were determined every day for 7 consecutive days after infection by measuring the p24 core antigen of HIV-1 in the supernatant culturing fluid by ELISA. This assay is based on a colour change after addition of substrate that is proportionate to the viral replication in each culture. The colour change is monitored by absorbance spectrophotometry at 450 nm. Negative control absorbance readings were used to calculate the absorbance/cut-off for each culture. • c) Determination of the optimal concentration of nanolipid-vesicle containing base formulation was done by cytotoxicity assays and cell growth curves. The cytotoxicity assay used was the standard MTT assay and spectrophotometry was once again used to determine cell viability for the CEM-SS cell line. Growth curves were used to determine the optimal concentration of base formulation for human macrophage cells (THP-1 cell line)."}, "[8]": {"test_system": "BCG (Bacillus of Calmette and Guerin)", "settings": "after a two-hour incubation; free drug"}, "[9]": {"test_system": "S. Aureus and P. Aeruginosa", "test": "Zone of inhibition study of Povidone iodine", "type": "cell-based", "settings": "formulated with the nanolipid vesicles of Preparation 2; 6.30 g Povidone iodine in 100 g; FIG. 2"}, "[10]": {"settings": "Mycobacterium tuberculosis, H37RV, Minus MZL"}, "[11]": {"settings": "Mycobacterium tuberculosis, H37RV, Plus MZL"}}, "note": "Entries after “also recorded” stand apart in the source; their conditions may differ. Like-named read-outs stand apart in the source and are kept apart here."}
{"compound": "CCN(CC)CCCC(C)Nc1ccnc2cc(Cl)ccc12", "note": "(centres unmarked) [Chloroquine]", "values": [{"measurement": "% Parasit", "setting": "[1]; 1 nM chloroquine", "result": 2.67, "unit": "%"}, {"measurement": "% Parasit", "setting": "[1]; 5 nM chloroquine", "result": 2.33, "unit": "%"}, {"measurement": "% Parasit", "setting": "[1]; 10 nM chloroquine", "result": 2.96, "unit": "%"}, {"measurement": "% Parasit", "setting": "[1]; 25 nM chloroquine", "result": 2.84, "unit": "%"}, {"measurement": "% Parasit", "setting": "[1]; 50 nM chloroquine", "result": 2.7, "unit": "%"}, {"measurement": "% Parasit", "setting": "[1]; 75 nM chloroquine", "result": 3.33, "unit": "%"}, {"measurement": "% Parasit", "setting": "[1]; 100 nM chloroquine", "result": 2.81, "unit": "%"}, {"measurement": "% Parasit", "setting": "[1]; 200 nM chloroquine", "result": 2.87, "unit": "%"}, {"measurement": "% Parasit", "setting": "[1]; 300 nM chloroquine", "result": 1.8, "unit": "%"}, {"measurement": "% Parasit", "setting": "[1]; 500 nM chloroquine", "result": 1.5, "unit": "%"}, {"measurement": "% Parasit", "setting": "[1]; 1000 nM chloroquine", "result": 1.4, "unit": "%"}, {"measurement": "IC50", "setting": "[2]", "result": "200 to 300", "unit": "nM"}]}
{"compound": "CC[C@@H](CO)NCCN[C@@H](CC)CO", "note": "[Ethambutol]", "values": [{"measurement": "inhibition maintained with MZL", "setting": "[3]; MZL treated, over the range of 0.03125 μg/ml-0.125 μg/ml Ethambutol", "result": "approx 50%"}, {"measurement": "MIC", "setting": "[3]; Mycobacterium tuberculosis, H37RV", "result": "~1", "unit": "µg/mL"}, {"measurement": "inhibition at 0.0325 µg/mL", "setting": "[3]; Mycobacterium tuberculosis, H37RV, Minus MZL, read-out: % Inhibition", "result": -21, "unit": "%"}, {"measurement": "inhibition at 0.0625 µg/mL", "setting": "[3]; [10]", "result": -16, "unit": "%"}, {"measurement": "inhibition at 0.125 µg/mL", "setting": "[3]; [10]", "result": -12, "unit": "%"}, {"measurement": "inhibition at 0.25 µg/mL", "setting": "[3]; [10]", "result": 51, "unit": "%"}, {"measurement": "inhibition at 0.5 µg/mL", "setting": "[3]; [10]", "result": 81, "unit": "%"}, {"measurement": "inhibition at 1 µg/mL", "setting": "[3]; [10]", "result": 92, "unit": "%"}, {"measurement": "inhibition at 0.0325 µg/mL", "setting": "[3]; [11]", "result": 48, "unit": "%"}, {"measurement": "inhibition at 0.0625 µg/mL", "setting": "[3]; [11]", "result": 49, "unit": "%"}, {"measurement": "inhibition at 0.125 µg/mL", "setting": "[3]; [11]", "result": 52, "unit": "%"}, {"measurement": "inhibition at 0.25 µg/mL", "setting": "[3]; [11]", "result": 51, "unit": "%"}, {"measurement": "inhibition at 0.5 µg/mL", "setting": "[3]; [11]", "result": 62, "unit": "%"}, {"measurement": "inhibition at 1 µg/mL", "setting": "[3]; [11]", "result": 86, "unit": "%"}]}
{"compound": "Clc1ccc(COC(Cn2ccnc2)c2ccc(Cl)cc2Cl)c(Cl)c1", "note": "(centres unmarked) [Free Miconazole, Miconazole nitrate]", "values": [{"measurement": "presence of fungi", "setting": "[4]; 4 hours incubation", "result": "fungi were still present in large numbers"}, {"measurement": "viability / state of human melanoma cells", "setting": "[4]; 4 hours incubation with fungi, listed as free Miconazole nitrate", "result": "decline dramatically; also recorded: cells were no longer attached to the petri dish"}]}
{"compound": "NNC(=O)c1ccncc1", "note": "[INH, Isoniazid]", "values": [{"measurement": "bioavailability versus comparator Rifafour", "setting": "[5]", "result": "enhanced bioavailability"}]}
{"compound": "[N-]=[N+]=O", "note": "[Nitrous oxide]", "values": [{"measurement": "solubility in water", "setting": "[6]", "result": "one liter of the gas dissolves in 1.5 liters of water"}]}
{"compound": "CO[C@H]1/C=C/O[C@@]2(C)Oc3c(C)c(O)c4c(O)c(c(/C=N/N5CCN(C)CC5)c(O)c4c3C2=O)NC(=O)/C(C)=C\\C=C\\[C@H](C)[C@H](O)[C@@H](C)[C@@H](O)[C@@H](C)[C@H](OC(C)=O)[C@@H]1C", "note": "[Rifampicin]", "values": [{"measurement": "increase of coverage by the nanolipid delivery system", "setting": "[5]; female", "result": 180, "unit": "%"}, {"measurement": "total average increase in bioavailability by Nanolipid delivery system", "setting": "[5]; female", "result": 227, "unit": "%"}, {"measurement": "Tmax", "setting": "[5]; female, po", "result": 1, "unit": "h"}]}
{"compound": "Cc1cn([C@H]2C[C@H](N=[N+]=[N-])[C@@H](CO)O2)c(=O)[nH]c1=O", "note": "[free AZT, AZT]", "values": [{"measurement": "inhibition of viral growth and replication compared to the control", "setting": "[7]; 0.1 nM free AZT, by day 7 and 8", "result": 44, "unit": "%"}, {"measurement": "AZT concentration at which viral inhibition is optimal", "setting": "[7]; dilution of base-formulation 1:256", "result": "0.5 to 1", "unit": "nM"}]}
{"compound": "NC(=O)c1cnccn1", "note": "[free Pyrazinamide, Pyrazinamide]", "values": [{"measurement": "BCG-viability", "setting": "[8]", "result": "68-72%"}, {"measurement": "bioavailability versus comparator Rifafour", "setting": "[5]", "result": "enhanced bioavailability"}]}
{"compound": "Povidone iodine", "values": [{"measurement": "inhibition of bacterial growth versus free active", "setting": "[9]", "result": "dramatically increased"}]}
